How the values were obtained:
[1] = tested on: L-FABP mRNA in human urinary exfoliated cells (human renal tubular epithelial cells); test: L-FABP up-regulating activity at mRNA level (RT-PCR) in human urinary exfoliated cells; format: cell-based; conditions: 10 μM (Table 1), listed as THA
Protocol: Renal tubular epithelial cells exfoliated from kidney tissues into urine (hereafter, referred to as “urinary exfoliated cell”) were isolated from human urine sample and cultured in the following manner. Firstly, urine samples from male infant nephritis patients (0-3 years old) were collected using the clean-catch method. The urine samples were then centrifuged (1000 rpm, 10 minutes) at room temperature and the supernatant was discarded. The pellet was washed with 10% (v/v) fetal calf serum-containing Dulbecco's modified Eagle's medium twice and then with culture medium once. The culture medium used herein was a mixture (1:1) of Dulbecco's modified Eagle's medium and Ham's F-12 medium, to which mixture was added fetal calf serum (10% v/v), insulin (5 μg/ml), transferrin (5 μg/ml), sodium selenite (5 ng/ml), dexamethasone (10^−8 M), nicotinamide (5 mM), penicillin (100 IU/ml) and streptomycin (100 μg/ml). The pellet was suspended into the culture medium, diluted appropriately and then cultured in collagen type 4-coated dish (3.5 cm in diameter, Falcon). The cultivation was performed under the condition of 5% CO2, 37° C. […] Also, in order to normalize the measurement values, rBAT (related to b^0,+ system amino acid transporter; Purroy et. al., Genomics, Vol 37. pp. 249-252, 1996) mRNA was detected as control by RT-PCR.

human L-FABP = test: L-FABP up-regulating activity at protein level (Western blotting or ELISA) in LLC-PK1 or mouse immortalized renal tubular epithelial cells carrying the human L-FABP chromosomal gene; format: cell-based; conditions: 1 μM, serum-free DMEM; anti-human L-FABP antibody
Text: The plasmid isolated in Example 1, (2) above, which contains human L-FABP chromosomal gene (entire length), was linealized and transfected into the porcine renal tubular cell line LLC-PK1 or mouse immortalized renal tubular epithelial cells prepared in a manner similar to that described in Example 2 (3) above to obtain stable transformed cell lines. The human L-FABP chromosomal gene was integrated into these cells on their chromosome without deletion. Using these cells, L-FABP up-regulating activity of test compounds were examined at RNA level and protein level in the following manner. Cells were cultured to become confluent, when the medium was replaced with serum-free DMEM medium, and test compounds were added to the medium at final concentration of 1 μM. The cultivation was continued at 37° C. Control sample was obtained without adding any test compounds. Measurement at protein level was carried out in the following manner. Cultivated cells were collected and sonicated and then cell extract was prepared. The amount of L-FABP in the extract was detected by Western Blotting method or ELISA method with anti-human L-FABP antibody. […] The up-regulating effect on L-FABP protein expression was also observed when Etomoxir was added.

[2] = tested on: human L-FABP gene transcriptional regulatory region (luciferase reporter); test: L-FABP up-regulating activity by luciferase reporter assay in proximal renal tubular epithelial cell line mProx 37-13; format: cell-based; conditions: mProx 37-13 cells, serum-free medium, luciferase measured after 2 to 10 hours; FIG. 4
Protocol: A test substance was examined for the L-FABP up-regulating activity by reporter assay method in the following manner using the proximal renal tubular epithelial cell line mProx 37-13 (also referred as “cell line No. 13”) comprising L-FABP reporter DNA construct and was prepared in Example 2 above. Firstly, the cell line mProx 37-13 was added in 96-well flat-bottom plates at 5×10^4 cells/ 100 μl/well and cultured. The cultivation was conducted using plates pre-coated with 0.1% gelatin and, as a medium, a high glucose-containing Dulbecco's MEM medium (Dulbecco's MEM, high glucose; DMEM) (Gibco) supplemented with 10% fetal calf serum, 100 unit/ml of penicillin and 100 μg/ml of streptomycin. […] After additional cultivation, Luciferase activity was detected after 2 to 10 hours. Luciferase activity was measured in the following way. […] After the plate stored at −80° C. was allowed to become room temperature, 100 μl of luminescence substrate solution (PicaGene luminescence kit, TOYO INK) was added to initiate reaction. Amount of luminescence was detected using luminometer (MicroLumat LP98P, BERTHOLD). […] The luciferase induction rate (Luc induction rate) was calculated based on the activity value according to the following equation: Luc induction rate=(test value)/(control value).

[3] = tested on: adriamycin-induced glomerular sclerosis mouse; test: Adriamycin-induced glomerular sclerosis model mouse (BALB/c); format: in vivo
Text: An adriamycin-induced glomerular sclerosis mouse was used as a renal disease model to confirm effect of PPAR agonist MCC-555 in the following manner. An adriamycin(AD)-induced glomerular sclerosis mouse is a pathological model which develops focal glomerular sclerosis in 3 weeks after the onset of nephrosis symptom while showing the symptom and eventually results in irreversible chronic renal insufficiency (Chen et. al., Nephron, vol. 78, pp.440-452, 1998). As shown in Examples 3, 4 and 5, MCC-555 is a compound confirmed to have L-FABP up-regulating activity. In the experiment, 7-week-age female BALB/c mice (purchased from Charles River Japan, Inc.) were used. At the first day of experiment (Day 0), Adriamycin (Sigma) was administered intravenously at 10 mg/kg (10 ml/kg dissolved in saline at 1 mg/ml). Normal group received intravenously an equivalent amount of saline only. To the mice were administered orally MCC-555 or carrier alone for 14 days from the first day of experiment (Day 0 to Day 13). The administration was initially conducted 1 hour before the adriamycin administration, and administration volume was 10 ml/kg for each time. In drug administration group (n=6), MCC-555 (suspension in 0.1% Tween 80-containing purified water) was administered at a dose of 10 mg/kg to mice that have received adriamycin. In control group (n=6), carrier (0.1% Tween 80-containing purified water) alone was administered to mice that have received adriamycin. Also in normal group (n=3), mice received carrier alone. Mice were separately housed in “a metabolic cage” and allowed to access food and water ad libitum while collecting urine for 24 hours. Specifically, collection of urine was performed 4 times in total, i.e., day 3-4, day 6-7, day 9-10, and day 13-14. Following measurement of volume, the collected urine was subjected to determination of urinary protein, NAG (N-acetyl-β-D-glucosaminidase) and creatinine (CRE) concentrations by clinical chemistry analyzer (SuperZ-818, […] Co.) After the collection of urine on the last experiment day (Day 14), blood was collected via abdominal aorta under ethereal anesthetization and serum was separated. Cholesterol and albumin were determined using Automated clinical analyzer TBA-80FR (TOSHIBA). Also, kidneys were isolated and fixed with neutral buffered formalin.

[4] = tested on: adriamycin-induced glomerular sclerosis hFABP-Tg mouse; test: Adriamycin-induced glomerular sclerosis model in transgenic mouse introduced with human L-FABP gene (hFABP-Tg mouse); format: in vivo; conditions: 10 mg/kg
Protocol: Transgenic mouse (hFABP-Tg mouse) introduced with human L-FABP gene was prepared. The hFABP-Tg mouse was used to make renal disease model similar to that of Example 8 and the effect of MCC-555 was identified.
In the preparation of hFABP-Tg mouse, male BCF1 mouse (13-week or over) was used for sterile mating and natural mating; female ICR mouse (10-week or over) for embryo transplant and as a foster mother; male BDF1 mouse (13-week or over) for mating; and female BCF1 mouse (8-week or over) for collection of eggs, respectively. The resultant transgenic mouse (B6C3F1 line) was used to backcross with BALB/c mouse.
The resultant female transgenic mouse was used to prepare a renal disease model (adriamycin-induced glomerular sclerosis model) and to confirm effects of drug (MCC-555). The preparation of disease model and confirmation of effect of a drug were conducted in a similar manner to that described in Example 8 above except that the dose of adriamycin on the first experiment day (Day 0) was 15 mg/kg (15 ml/kg, dissolved in saline at concentration of 1 mg/ml).
In drug administration group (n=5), MCC-555 (10 mg/kg) was administered to mice that have received adriamycin, and in control group (at the beginning of experiment, n=5), only carrier was administered to mice that have received adriamycin, In normal group (n=3), mice that were not treated with adriamycin received carrier. Collection of urine was performed 3 times in total, i.e., day 6-7 day (Day 7), day 10-11 (Day 11), and day 13-14 (Day 14) and urinary protein, NAG and creatinine concentrations were determined by Automated clinical analyzer after measurements of urine volume.

human L-FABP mRNA = test: L-FABP up-regulating activity at mRNA level (RT-PCR) in LLC-PK1 or mouse immortalized renal tubular epithelial cells carrying the human L-FABP chromosomal gene; format: cell-based; conditions: 1 μM, serum-free DMEM; from 15 minute to 24 hour after beginning of cultivation; normalised to GAPDH mRNA
Text: The plasmid isolated in Example 1, (2) above, which contains human L-FABP chromosomal gene (entire length), was linealized and transfected into the porcine renal tubular cell line LLC-PK1 or mouse immortalized renal tubular epithelial cells prepared in a manner similar to that described in Example 2 (3) above to obtain stable transformed cell lines. The human L-FABP chromosomal gene was integrated into these cells on their chromosome without deletion. Using these cells, L-FABP up-regulating activity of test compounds were examined at RNA level and protein level in the following manner. Cells were cultured to become confluent, when the medium was replaced with serum-free DMEM medium, and test compounds were added to the medium at final concentration of 1 μM. The cultivation was continued at 37° C. Control sample was obtained without adding any test compounds. Measurement at mRNA level was carried out in the following manner. After cultivation, cells were collected and total RNA was prepared. […] Also, in order to normalize the measurement values, GAPDH (glyceraldehyde 3-phosphate dehydrogenase) mRNA was detected as control in the similar RT-PCR. The resulted PCR products were subjected to agarose-gel electrophoresis, the gel was stained with ethidium bromide to detect bands respectively and the expression amount was determined by densitometry, or visually.

[5] = adriamycin 15 mg/kg, Day 7, 11, 14, FIG. 9

Structure (SMILES)	L-FABP mRNA [1]	Up-regulating effect on L-FABP protein expression (human L-FABP)	Induction of luciferase activity (L-FABP up-regulating activity) [2]	Histological changes of kidney (tissue imaging examination) ([3]; 10 mg/kg orally for 14 days)	NAG excretion (index of proximal renal tubular injury) ([3]; 10 mg/kg orally for 14 days (Day 0 to Day 13), adriamycin 10 mg/kg i.v., FIG. 7)	Proteinuria (urinary protein) ([3]; 10 mg/kg orally for 14 days, adriamycin 10 mg/kg i.v., FIG. 7)	Blood biochemical examination parameters (blood cholesterol and albumin level) ([3]; 10 mg/kg orally for 14 days, serum at Day 14, FIG. 8)	Increase of NAG excretion amount after AD administration [4, 5]	Increase of urinary protein after AD administration [4, 5]	Animals died during the experiment ([4]; n=5, in the control group 3 animals died)	Induction of L-FABP mRNA (human L-FABP mRNA)
CCCc1c(OCCCCCCc2nn[nH]n2)ccc(C(C)=O)c1O [4-THA, 2-hydroxy-3-propyl-4-[6-(tetrazol-5-yl)hexyloxy]acetophenone]	increased										
CCOC(=O)C1(CCCCCCOc2ccc(Cl)cc2)CO1 (stereo not shown) [Etomoxir, ethyl 2-[6-(4-chlorophenoxy)hexyl]oxiranecarboxylate]		also observed	Induction of luciferase activity was observed								
O=C1NC(=O)C(Cc2ccc3cc(OCc4ccccc4F)ccc3c2)S1 (stereo not shown) [MCC-555, 5-[6-(2-fluorobenzyloxy)naphthalene-2-ylmethyl]thiazolidine-2,4-dione]		up-regulating effect on L-FABP protein expression was observed	Induction of luciferase activity was observed	inhibited	suppressed	improved	improved	significantly suppressed	significantly suppressed	no animals died	induction of L-FABP mRNA was observed

Reference: US6794154B1, “Remedies for kidney diseases and method for screening the same” (Tanabe Seiyaku Co., Ltd., priority 1999, dated 2004)
